ChEMBL document CHEMBL3872241, “Synthesis and bioactivity evaluation of 2,3-diaryl acrylonitrile derivatives as potential anticancer agents” (Bioorg Med Chem Lett, 2017)

What was measured:
[1] = Cytotoxicity against human HCT116 cells assessed as cell growth inhibition after 48 hrs by MTT assay; format: functional, cell-based; conditions: HCT-116, 48 h
[2] = Cytotoxicity against human HeLa cells assessed as cell growth inhibition after 48 hrs by MTT assay; format: functional, cell-based
[3] = Cytotoxicity against human Bel7402 cells assessed as cell growth inhibition after 48 hrs by MTT assay; format: functional, cell-based; conditions: Bel-7402, 48 h
[4] = Cytotoxicity against human L02 cells assessed as cell growth inhibition after 48 hrs by MTT assay; format: toxicity, cell-based
[5] = Cytotoxicity against human HCT116 cells assessed as cell growth inhibition at 100 uM after 48 hrs by MTT assay; format: functional; conditions: HCT-116, 48 h, read-out: GI
[6] = Cytotoxicity against human HeLa cells assessed as cell growth inhibition at 100 uM after 48 hrs by MTT assay; format: functional; conditions: read-out: GI
[7] = Cytotoxicity against human Bel7402 cells assessed as cell growth inhibition at 100 uM after 48 hrs by MTT assay; format: functional; conditions: Bel-7402, 48 h, read-out: GI
[8] = Cytotoxicity against human L02 cells assessed as cell growth inhibition at 100 uM after 48 hrs by MTT assay; format: toxicity, cell-based; conditions: read-out: GI
HCT-116 = assay: Selectivity index, ratio of IC50 for human L02 cells to IC50 for human HCT116 cells; format: functional
Bel-7402 = assay: Selectivity index, ratio of IC50 for human L02 cells to IC50 for human Bel7402 cells; format: functional
HeLa = assay: Selectivity index, ratio of IC50 for human L02 cells to IC50 for human HeLa cells; format: functional
[9] = Cell cycle arrest in human HeLa cells assessed as accumulation at G0/G1 phase at 0.1 to 1 uM after 24 hrs by propidium iodide-based FACS analysis (reference value: 61.71%); format: functional
[10] = Cell cycle arrest in human HeLa cells assessed as accumulation at S phase at 0.1 to 1 uM after 24 hrs by propidium iodide-based FACS analysis (reference value: 31.26%); format: functional
[11] = Cell cycle arrest in human HeLa cells assessed as accumulation at G2/M phase at 0.1 to 1 uM after 24 hrs by propidium iodide-based FACS analysis (reference value: 7.12%); format: functional

COc1cc(OC)cc(/C(C#N)=C/c2ccc(F)cc2)c1
IC50 [1]: > 100 µM | IC50 [2]: > 100 µM | IC50 [3]: > 100 µM | IC50 at 48 h [4]: > 100 µM | inhibition of growth at 100 µM [5]: 27.8% | inhibition of growth at 100 µM [6]: 45.8% | inhibition of growth at 100 µM [7]: 9.3% | inhibition at 48 h, 100 µM [8]: 2.5%

COc1cc(OC)cc(/C(C#N)=C/c2ccc(OCC(C)C)cc2)c1
IC50 [1]: > 100 µM | IC50 [2]: > 100 µM | IC50 [3]: > 100 µM | IC50 at 48 h [4]: > 100 µM | inhibition of growth at 100 µM [5]: 32.3% | inhibition of growth at 100 µM [6]: 22.4% | inhibition of growth at 100 µM [7]: 7.6% | inhibition at 48 h, 100 µM [8]: 13.6%

COc1cc(OC)cc(/C(C#N)=C/c2cccs2)c1
IC50 [1]: 31.6 µM | IC50 [2]: > 100 µM | IC50 [3]: 36.7 µM | IC50 at 48 h [4]: > 100 µM | Ratio IC50 (HCT-116): >3.16 | Ratio IC50 (Bel-7402): >2.73 | inhibition of growth at 100 µM [6]: 42.2% | inhibition at 48 h, 100 µM [8]: 41.7%

COc1cccc(/C=C(\C#N)c2cc(OC)cc(OC)c2)c1
IC50 [1]: > 100 µM | IC50 [2]: > 100 µM | IC50 [3]: > 100 µM | IC50 at 48 h [4]: > 100 µM | inhibition of growth at 100 µM [5]: 41.1% | inhibition of growth at 100 µM [6]: 36.4% | inhibition of growth at 100 µM [7]: 12.4% | inhibition at 48 h, 100 µM [8]: 19.5%

COc1cc(OC)cc(/C(C#N)=C/c2ccccc2)c1
IC50 [1]: > 100 µM | IC50 [2]: > 100 µM | IC50 [3]: > 100 µM | IC50 at 48 h [4]: > 100 µM | inhibition of growth at 100 µM [5]: 27.1% | inhibition of growth at 100 µM [6]: 28% | inhibition of growth at 100 µM [7]: 34.8% | inhibition at 48 h, 100 µM [8]: 36.4%

CCOc1ccc(/C=C(\C#N)c2cc(OC)cc(OC)c2)cc1
IC50 [1]: 0.13 µM | IC50 [2]: 7.77 µM | IC50 [3]: 0.66 µM | IC50 at 48 h [4]: > 100 µM | Ratio IC50 (HCT-116): >769.23 | Ratio IC50 (Bel-7402): >151.52 | inhibition at 48 h, 100 µM [8]: 34.7% | Ratio IC50 (HeLa): >12.87 | Activity [9]: 0.74% | Activity [10]: 47.6% | Activity [11]: 51.6%

COc1cc(OC)cc(/C(C#N)=C/c2c(C)cc(C)cc2C)c1
IC50 [1]: > 100 µM | IC50 [2]: > 100 µM | IC50 [3]: > 100 µM | IC50 at 48 h [4]: > 100 µM | inhibition of growth at 100 µM [5]: 28.9% | inhibition of growth at 100 µM [6]: 2.7% | inhibition of growth at 100 µM [7]: 13.4% | inhibition at 48 h, 100 µM [8]: 28.1%

COc1cc(OC)cc(/C(C#N)=C/c2ccc(C(F)(F)F)cc2)c1
IC50 [1]: 21.8 µM | IC50 [2]: > 100 µM | IC50 [3]: 27.6 µM | IC50 at 48 h [4]: > 100 µM | Ratio IC50 (HCT-116): >4.58 | Ratio IC50 (Bel-7402): >3.62 | inhibition of growth at 100 µM [6]: 48.2% | inhibition at 48 h, 100 µM [8]: 22.9%

COc1cc(OC)cc(/C(C#N)=C/c2ccc(Br)cc2)c1
IC50 [1]: 11.4 µM | IC50 [2]: 4.2 µM | IC50 [3]: > 100 µM | IC50 at 48 h [4]: > 100 µM | Ratio IC50 (HCT-116): >8.79 | inhibition of growth at 100 µM [7]: 31.6% | inhibition at 48 h, 100 µM [8]: 36% | Ratio IC50 (HeLa): >23.81 | Activity [9]: 0.7% | Activity [10]: 30.1% | Activity [11]: 69.9%

COc1cc(OC)cc(/C(C#N)=C/c2cccc(C(F)(F)F)c2)c1
IC50 [1]: > 100 µM | IC50 [2]: > 100 µM | IC50 [3]: > 100 µM | IC50 at 48 h [4]: > 100 µM | inhibition of growth at 100 µM [5]: 28.7% | inhibition of growth at 100 µM [6]: 18.3% | inhibition of growth at 100 µM [7]: 20% | inhibition at 48 h, 100 µM [8]: 29.4%

COc1cc(OC)cc(/C(C#N)=C/c2ccc(Cl)cc2)c1
IC50 [1]: 43.3 µM | IC50 [2]: 15.9 µM | IC50 [3]: 8.04 µM | IC50 at 48 h [4]: > 100 µM | Ratio IC50 (HCT-116): >2.31 | Ratio IC50 (Bel-7402): >12.43 | inhibition at 48 h, 100 µM [8]: 33.6%

COc1cc(OC)cc(/C(C#N)=C/c2ccccc2F)c1
IC50 [1]: 12.2 µM | IC50 [2]: > 100 µM | IC50 [3]: 72.6 µM | IC50 at 48 h [4]: > 100 µM | Ratio IC50 (HCT-116): >8.19 | Ratio IC50 (Bel-7402): >1.38 | inhibition of growth at 100 µM [6]: 44.4% | inhibition at 48 h, 100 µM [8]: 34.6%

COc1cc(OC)cc(/C(C#N)=C/c2ccc(OCc3ccccc3)cc2)c1
IC50 [1]: > 100 µM | IC50 [2]: > 100 µM | IC50 [3]: > 100 µM | IC50 at 48 h [4]: > 100 µM | inhibition of growth at 100 µM [5]: 18.7% | inhibition of growth at 100 µM [6]: 20.7% | inhibition of growth at 100 µM [7]: 18.6% | inhibition at 48 h, 100 µM [8]: 32.7%

COc1cc(OC)cc(/C(C#N)=C/c2ccc(N(C)C)cc2)c1
IC50 [1]: 0.59 µM | IC50 [2]: > 100 µM | IC50 [3]: 1.74 µM | IC50 at 48 h [4]: > 100 µM | Ratio IC50 (HCT-116): >169.49 | Ratio IC50 (Bel-7402): >57.47 | inhibition of growth at 100 µM [6]: 44.4% | inhibition at 48 h, 100 µM [8]: 26.8%

CCCOc1ccccc1/C=C(\C#N)c1cc(OC)cc(OC)c1
IC50 [1]: > 100 µM | IC50 [2]: > 100 µM | IC50 [3]: > 100 µM | IC50 at 48 h [4]: > 100 µM | inhibition of growth at 100 µM [5]: 27.7% | inhibition of growth at 100 µM [7]: 4.9% | inhibition at 48 h, 100 µM [8]: 6.4%
